Data on 28 substances can be found in patent publication US20080145313A1, “Compositions and Methods for the Treatment and Prevention of Neoplastic Disorders” (Genesis Research & Development Corporation Limited, priority 2006, published 2008).

The data set concerns A549 cells. Description: Growth inhibition of siRNA-transfected A549 cells, SYBR Green I DNA content. Format: cell-based, human. Particulars: 10 nM siRNA, DNA content 96 hours after transfection; for Growth Inhibition in A549 cells by 10 nM siRNA: transporter gene targets. A digest of the protocol: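 Growth read-out: cellular DNA quantified with SYBR Green I (485/535 nm) 96 h after transfection, cells frozen, thawed and lysed in PBS/1% Triton X-100, pH 7. Cells (A549, 5×10^3 cells/cm^2) received 10 nM siRNA by RNAiMAX; non-specific siRNA served as control; triplicate wells averaged.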

As for “SEQ ID NO: 4941: siRNA targeting ATP2B2 (PMCA2) (chain 1 ATCTGTGTCTGGATCCGATTCAGGC; chain 2 AUCUGUGUCUGGAUCCGAUUCAGGC; chemistry not given here; one strand in two spellings)”, the “Growth Inhibition in A549 cells by 10 nM siRNA” value is given as “+ (inhibits by at least 50%)”.
The same measure, in the same setting: then “SEQ ID NO: 4942: siRNA targeting ATP2B2 (PMCA2) (chain 1 TTCCAGGTCGGTGTCATCAATGAGG; chain 2 UUCCAGGUCGGUGUCAUCAAUGAGG; chemistry not given here; one strand in two spellings)”, with “− (no growth inhibition)”.
On to “SEQ ID NO: 4943: siRNA targeting ATP2B3 (PMCA3) (chain 1 AAACGTCTCAATCACAAAGTAGAGG; chain 2 AAACGUCUCAAUCACAAAGUAGAGG; chemistry not given here; one strand in two spellings)”, for which the “Growth Inhibition in A549 cells by 10 nM siRNA” value is reported as “− (no growth inhibition)”.
Take “SEQ ID NO: 4944: siRNA targeting ATP2B3 (PMCA3) (chain 1 AAAGCTTGTCTTCCGGGATCTGCTC; chain 2 AAAGCUUGUCUUCCGGGAUCUGCUC; chemistry not given here; one strand in two spellings)”: the “Growth Inhibition in A549 cells by 10 nM siRNA” value is given as “− (no growth inhibition)”.
The same measure, in the same setting: in the case of “SEQ ID NO: 4945: siRNA targeting ATP2B3 (PMCA3) (chain 1 AATGTGTCCATGATCAAGTTCACCC; chain 2 AAUGUGUCCAUGAUCAAGUUCACCC; chemistry not given here; one strand in two spellings)” it was “+ (inhibits by at least 50%)”; in that of “SEQ ID NO: 4949: siRNA targeting ATP6V1A (chain 1 TATAAATAGAGGCTTCTCTAGCAGC; chain 2 UAUAAAUAGAGGCUUCUCUAGCAGC; chemistry not given here; one strand in two spellings)”, “− (no growth inhibition)”; in that of “SEQ ID NO: 4950: siRNA targeting ATP6V1A (chain 1 TTTCATGGAGGAAAGTTTATAGAGG; chain 2 UUUCAUGGAGGAAAGUUUAUAGAGG; chemistry not given here; one strand in two spellings)”, “− (no growth inhibition)”.
Still for that read-out and setting: in the case of “SEQ ID NO: 4951: siRNA targeting ATP6V1A (chain 1 AAATGGCTCCCATAATGCCAGGACC; chain 2 AAAUGGCUCCCAUAAUGCCAGGACC; chemistry not given here; one strand in two spellings)” it was “+ (inhibits by at least 50%)”; in that of “SEQ ID NO: 4979: siRNA targeting ABCB1 (MDR1) (chain 1 TAATTATTCCTGTCCCAAGATTTGC; chain 2 UAAUUAUUCCUGUCCCAAGAUUUGC; chemistry not given here; one strand in two spellings)”, “− (no growth inhibition)”; in that of “SEQ ID NO: 4980: siRNA targeting ABCB1 (MDR1) (chain 1 TTCACCAAATGTGACATTTCCTTCC; chain 2 UUCACCAAAUGUGACAUUUCCUUCC; chemistry not given here; one strand in two spellings)”, “− (no growth inhibition)”.
On to “SEQ ID NO: 4986: siRNA targeting DCK (chain 1 ACGATCTGTGTATAGTGACAGGTAT; chain 2 ACGAUCUGUGUAUAGUGACAGGUAU; Both strands are one antisense strand in DNA/RNA notation, chemistry not given here, further chemistry not given here; one strand in two spellings)”, for which the “Growth Inhibition in A549 cells” value is reported as “− (no growth inhibition with any siRNA)”.
On the same count and under the same terms, then “SEQ ID NO: 4987: siRNA targeting DCK (chain 1 CAAGACTGGCATGACTGGATGAATA; chain 2 CAAGACUGGCAUGACUGGAUGAAUA; Both strands are one antisense strand in DNA/RNA notation, chemistry not given here, further chemistry not given here; one strand in two spellings)”, with “− (no growth inhibition with any siRNA)”; and “SEQ ID NO: 4988: siRNA targeting DCK (chain 1 GCAAGGCATTCCTCTTGAATATTTA; chain 2 GCAAGGCAUUCCUCUUGAAUAUUUA; Both strands are one antisense strand in DNA/RNA notation, chemistry not given here, further chemistry not given here; one strand in two spellings)”, with “− (no growth inhibition with any siRNA)”.
With “SEQ ID NO: 4989: siRNA targeting TK1 (chain 1 GCGTGGCTGTCATAGGCATCGACGA; chain 2 GCGUGGCUGUCAUAGGCAUCGACGA; chemistry not given here; one strand in two spellings)”, the “Growth Inhibition in A549 cells” value is “− (no growth inhibition with any siRNA)”.
Same read-out and setting: then “SEQ ID NO: 4990: siRNA targeting TK1 (chain 1 GACATCATGGAGTTCTGCGAGGCCA; chain 2 GACAUCAUGGAGUUCUGCGAGGCCA; chemistry not given here; one strand in two spellings)”, with “− (no growth inhibition with any siRNA)”.
On the same count and under the same terms, in the case of “SEQ ID NO: 4991: siRNA targeting TK1 (chain 1 GCACTGGATGGGACCTTCCAGAGGA; chain 2 GCACUGGAUGGGACCUUCCAGAGGA; chemistry not given here; one strand in two spellings)” it was “− (no growth inhibition with any siRNA)”; in that of “SEQ ID NO: 4992: siRNA targeting TK2 (chain 1 GGGATCGAATATTAACTCCAGAGAA; chain 2 GGGAUCGAAUAUUAACUCCAGAGAA; chemistry not given here; one strand in two spellings)”, “− (no growth inhibition with any siRNA)”; in that of “SEQ ID NO: 4993: siRNA targeting TK2 (chain 1 GGAAGACGACATGCCTGGAATTCTT; chain 2 GGAAGACGACAUGCCUGGAAUUCUU; chemistry not given here; one strand in two spellings)”, “− (no growth inhibition with any siRNA)”.
Still for that read-out and setting: in the case of “SEQ ID NO: 4994: siRNA targeting TK2 (chain 1 CCTGAGACTTGTTACCAGAGGTTAA; chain 2 CCUGAGACUUGUUACCAGAGGUUAA; chemistry not given here; one strand in two spellings)” it was “− (no growth inhibition with any siRNA)”.
Consider “SEQ ID NO: 4995: siRNA targeting DGUOK (chain 1 CCTCATGAGAGAGGTAAACACCTTT; chain 2 CCUCAUGAGAGAGGUAAACACCUUU; chemistry not given here; one strand in two spellings)”, for which the “Growth Inhibition in A549 cells” value is recorded as “− (no growth inhibition with any siRNA)”.
Still for that read-out and setting: in the case of “SEQ ID NO: 4996: siRNA targeting DGUOK (chain 1 CCTGCACTGCCCAAAGTCTTGGAAA; chain 2 CCUGCACUGCCCAAAGUCUUGGAAA; chemistry not given here; one strand in two spellings)” it was “− (no growth inhibition with any siRNA)”; in that of “SEQ ID NO: 4997: siRNA targeting DGUOK (chain 1 GCCAGGAAGCCAGTACAGATCTTTG; chain 2 GCCAGGAAGCCAGUACAGAUCUUUG; chemistry not given here; one strand in two spellings)”, “+ (inhibits by at least 50%)”.
As for “SEQ ID NO: 4998: siRNA targeting UMPS (chain 1 GAGTTGTGAAAGGCCTGCAAGAAGT; chain 2 GAGUUGUGAAAGGCCUGCAAGAAGU; chemistry not given here; one strand in two spellings)”, the “Growth Inhibition in A549 cells” value was “− (no growth inhibition with any siRNA)”.
As to “SEQ ID NO: 4999: siRNA targeting UMPS (chain 1 TGGAAACTGTTGAGGTTCTTCAGAA; chain 2 UGGAAACUGUUGAGGUUCUUCAGAA; chemistry not given here; one strand in two spellings)”, the “Growth Inhibition in A549 cells” value was “+ (inhibits by at least 50%)”.
On the same count and under the same terms, then “SEQ ID NO: 5000: siRNA targeting UMPS (chain 1 GCTGTTGCAGCTAGCAGATGCTTTA; chain 2 GCUGUUGCAGCUAGCAGAUGCUUUA; chemistry not given here; one strand in two spellings)”, with “− (no growth inhibition with any siRNA)”; and “SEQ ID NO: 5001: siRNA targeting DPYD (chain 1 GCTAGCATTATGTGCAGTTACAATA; chain 2 GCUAGCAUUAUGUGCAGUUACAAUA; chemistry not given here; one strand in two spellings)”, with “− (no growth inhibition with any siRNA)”.
Still for that read-out and setting: in the case of “SEQ ID NO: 5002: siRNA targeting DPYD (chain 1 GCCACTGAAGAGGGACCCATTAATA; chain 2 GCCACUGAAGAGGGACCCAUUAAUA; chemistry not given here; one strand in two spellings)” it was “− (no growth inhibition with any siRNA)”.
Regarding “SEQ ID NO: 5003: siRNA targeting DPYD (chain 1 GGCTACAAAGCTGCTTTCATTGGAA; chain 2 GGCUACAAAGCUGCUUUCAUUGGAA; chemistry not given here; one strand in two spellings)”, the “Growth Inhibition in A549 cells” value was “− (no growth inhibition with any siRNA)”.
